Data reported in patent US10227315B2, “Mitochondrial uncouplers for treatment of metabolic diseases and cancer” (RUTGERS, THE STATE UNIVERSITY OF NEW JERSEY, priority 2016, dated 2019).
pEC50: −log10 of the molar value.

Key:
[1] = tested on: mouse myoblast C2C12 cells; assay: Oxygen consumption rate (OCR) assay with Seahorse XF96 or XF24, mitochondrial uncoupling; type: cell-based; conditions: 10% fetal bovine serum, in the presence of oligomycin 2.5 μM, read-out: Cmin (minimal concentration to induce ATP synthase-independent OCR increase)
From the text: By definition, mitochondrial uncoupling is the decoupling of mitochondrial electron transport chain activity (mitochondrial oxidation) from ATP synthesis by mitochondrial ATP synthase. Technically, mitochondrial uncoupling activity is defined by the ability of a chemical compound to induce oxygen consumption of cells or isolated mitochondria in the presence of a mitochondrial ATP synthase inhibitor such as oligomycin. Accordingly, we determined mitochondrial uncoupling activity by oxygen consumption rate (OCR) assay with a Seahorse XF96 or a Seahorse XF24 instrument following the vendor's instruction, using mouse myoblast C2C12 cells growing in medium containing 10% fetal bovine serum. […] The minimal concentration (Cmin) of each compound under which OCR is induced in the presence of oligomycin, was determined.

[2] = tested on: NIH-3T3 cells, or HepG2 cells; assay: Mitochondrial membrane potential assay, TMRE staining; type: cell-based; conditions: 2 h; two hours treatment, TMRE 100 nM; read-out: EC50, mitochondrial membrane potential reduction (TMRE staining reduced to about 50%)
Experimental: Mitochondrial uncoupling may also lead to a reduction of mitochondrial membrane potential. We performed mitochondrial membrane potential assay using TMRE (tetramethylrhodamine ethyl ester) staining method with cultured mammalian cells, the NIH-3T3 cells, or HepG2 cells. Cells were seeded onto 6-well plates and cultured in DMEM medium supplemented with 10% fetal bovine serum and 2 mM glutamine. Cells were allowed to grow to logarithmic growth phase prior to experiments. The cells were treated with each individual compound at various concentrations for two hours, followed by staining with TMRE at final concentration of 100 nM for 15 minutes. The cells were then washed once with PBS, and examined under fluorescence microscopy. Cells treated with various concentrations of niclosamide ethanolamine were used as positive control. Reduction of mitochondrial TMRE staining was estimated as a quantification of mitochondrial uncoupling activity. […] The following table (Table II) summarizes the activity of individual compounds in reducing mitochondrial membrane potential in cultured mammalian cells.

Compound: CN(C)CCc1cc(Cl)cc(C(=O)Nc2nc3ccc(C(F)(F)F)cc3s2)c1O [Compound 2, 5-Chloro-3-(2-(dimethylamino)ethyl)-2-hydroxy-N-(6-(trifluoromethyl)benzo[d]thiazol-2-yl)benzamide]
- minimal effective concentration [1]: < 10 µM

Compound: CS(=O)(=O)NCCc1cc(Cl)cc(C(=O)Nc2nc3ccc(C(F)(F)F)cc3s2)c1O [Compound 3, 5-Chloro-2-hydroxy-3-(2-(methylsulfonamido)ethyl)-N-(6-(trifluoromethyl)benzo[d]thiazol-2-yl)benzamide]
- minimal effective concentration [1]: < 10 µM

Compound: O=C(Nc1nc2ccc(C(F)(F)F)cc2s1)c1cc(Cl)cc2nc(C(F)(F)F)[nH]c12 [Compound 8, 5-Chloro-2-(trifluoromethyl)-N-(6-(trifluoromethyl)benzo[d]thiazol-2-yl)-1H-benzo[d]imidazole-7-carboxamide]
- minimal effective concentration [1]: 10 to 25 µM
- pEC50 [2]: 4.60 to 5.00

Compound: Oc1cc(Nc2nc3ccc(C(F)(F)F)cc3s2)c(C(F)(F)F)cc1C(F)(F)F [Compound 9, 2,4-Bis(trifluoromethyl)-5-((6-(trifluoromethyl)benzo[d]thiazol-2-yl)amino)phenol]
- minimal effective concentration [1]: > 25 µM
- pEC50 [2]: < 4.60

Compound: O=C(Nc1ccc([N+](=O)[O-])cc1Cl)c1cc(Cl)ccc1OC(=O)N1CCOCC1 [Compound 13, 4-Chloro-2-((2-chloro-4-nitrophenyl)carbamoyl)phenyl morpholine-4-carboxylate]
- minimal effective concentration [1]: < 10 µM
- pEC50 [2]: > 5.00

Compound: O=C(Nc1ccc(C(F)(F)F)cc1Cl)c1cc(Cl)ccc1O [Compound 14, 5-Chloro-N-(2-chloro-4-(trifluoromethyl)phenyl)-2-hydroxybenzamide]
- minimal effective concentration [1]: < 10 µM
- pEC50 [2]: > 5.00

Compound: O=C(Nc1ccc(F)cc1Cl)c1cc(Cl)ccc1O [Compound 15, 5-Chloro-N-(2-chloro-4-fluorophenyl)-2-hydroxybenzamide]
- minimal effective concentration [1]: < 10 µM
- pEC50 [2]: > 5.00

Compound: N#Cc1ccc(NC(=O)c2cc(Cl)ccc2O)c(Cl)c1 [Compound 16, 5-Chloro-N-(2-chloro-4-cyanophenyl)-2-hydroxybenzamide]
- minimal effective concentration [1]: < 10 µM
- pEC50 [2]: > 5.00

Compound: O=C(Nc1nc2c(F)cc(C(F)(F)F)cc2s1)c1cc(Cl)ccc1O [Compound 21, 5-Chloro-N-(4-fluoro-6-(trifluoromethyl)benzo[d]thiazol-2-yl)-2-hydroxybenzamide]
- minimal effective concentration [1]: < 10 µM
- pEC50 [2]: > 5.00

Compound: O=C(Nc1nc2c(C(F)(F)F)cc(C(F)(F)F)cc2s1)c1cc(Cl)ccc1O [Compound 22, N-(4,6-Bis(trifluoromethyl)benzo[d]thiazol-2-yl)-5-chloro-2-hydroxybenzamide]
- minimal effective concentration [1]: < 10 µM
- pEC50 [2]: > 5.00

Compound: O=C(Nc1nc2cc(C(F)(F)F)ccc2s1)c1cc(Cl)ccc1O [Compound 25, 5-Chloro-2-hydroxy-N-(5-(trifluoromethyl)benzo[d]thiazol-2-yl)benzamide]
- minimal effective concentration [1]: > 25 µM
- pEC50 [2]: < 4.60

Compound: O=C(Nc1nc2cccc(C(F)(F)F)c2s1)c1cc(Cl)ccc1O [Compound 26, 5-Chloro-2-hydroxy-N-(7-(trifluoromethyl)benzo[d]thiazol-2-yl)benzamide]
- minimal effective concentration [1]: > 25 µM
- pEC50 [2]: < 4.60

Compound: O=C(Nc1nc2c(C(F)(F)F)cccc2s1)c1cc(Cl)ccc1O [Compound 32, 5-Chloro-2-hydroxy-N-(4-(trifluoromethyl)benzo[d]thiazol-2-yl)benzamide ethanolamine]
- minimal effective concentration [1]: < 10 µM
- pEC50 [2]: > 5.00

Compound: O=C(Nc1nc2ccc(C(F)(F)F)cc2s1)c1cc(Cl)ccc1O [Compound 33, 5-Chloro-2-hydroxy-N-(6-(trifluoromethyl)benzo[d]thiazol-2-yl)benzamide ethanolamine]
- minimal effective concentration [1]: < 10 µM
- pEC50 [2]: > 5.00

Compound: Cc1cc(Cl)cc(C(=O)Nc2nc3c(C(F)(F)F)cccc3s2)c1O [Compound 34, 5-Chloro-2-hydroxy-3-methyl-N-(4-(trifluoromethyl)benzo[d]thiazol-2-yl)benzamide ethanolamine]
- pEC50 [2]: > 5.00

Compound: O=C(Nc1nc2c(F)cc(F)cc2s1)c1cc(Cl)ccc1O [Compound 35, 5-Chloro-N-(4,6-difluorobenzo[d]thiazol-2-yl)-2-hydroxybenzamide ethanolamine]
- pEC50 [2]: > 5.00

Compound: O=C(Nc1nc2ccc(C(F)(F)F)cc2s1)c1cc(Cl)cc(C2CC2)c1O [Compound 36, 5-Chloro-3-cyclopropyl-2-hydroxy-N-(6-(trifluoromethyl)benzo[d]thiazol-2-yl)benzamide]
- minimal effective concentration [1]: < 10 µM
- pEC50 [2]: > 5.00

Compound: Cc1cc(Cl)cc(C(=O)Nc2nc3ccc(C(F)(F)F)cc3s2)c1O [Compound 37, 5-Chloro-2-hydroxy-3-methyl-N-(6-(trifluoromethyl)benzo[d]thiazol-2-yl)benzamide compound with (2R,3R,4R,5S)-6-(methylamino)hexane-1,2,3,4,5-pentaol (1:1)]
- pEC50 [2]: > 5.00

Compound: Cc1cc(Cl)cc(C(=O)Nc2nc3cc(C(F)(F)F)ccc3s2)c1O [Compound 41, 5-Chloro-2-hydroxy-3-methyl-N-(5-(trifluoromethyl)benzo[d]thiazol-2-yl)benzamide]
- minimal effective concentration [1]: < 10 µM
- pEC50 [2]: > 5.00

Compound: Cc1cc(Cl)cc(C(=O)Nc2nc3cccc(C(F)(F)F)c3s2)c1O [Compound 42, 5-Chloro-2-hydroxy-3-methyl-N-(7-(trifluoromethyl)benzo[d]thiazol-2-yl)benzamide]
- minimal effective concentration [1]: > 25 µM
- pEC50 [2]: < 4.60

Compound: O=C(Nc1nc2ccc(C(F)(F)F)cc2s1)c1cc(Cl)cc(CO)c1O [Compound 49, 5-Chloro-2-hydroxy-3-(hydroxymethyl)-N-(6-(trifluoromethyl)benzo[d]thiazol-2-yl)benzamide]
- minimal effective concentration [1]: > 25 µM
- pEC50 [2]: < 4.60

Compound: Cc1cc(Cl)cc(C(=O)Nc2nc3c(C(F)(F)F)cc(C(F)(F)F)cc3s2)c1O [Compound 50, N-(4,6-Bis(trifluoromethyl)benzo[d]thiazol-2-yl)-5-chloro-2-hydroxy-3-methylbenzamide]
- minimal effective concentration [1]: < 10 µM
- pEC50 [2]: > 5.00

Compound: Cc1cc(Cl)cc(C(=O)Nc2nc3ccc(OC(F)(F)F)cc3s2)c1O [Compound 51, 5-Chloro-2-hydroxy-3-methyl-N-(6-(trifluoromethoxy)benzo[d]thiazol-2-yl)benzamide]
- minimal effective concentration [1]: < 10 µM
- pEC50 [2]: > 5.00

Compound: CN(C)CCCc1cc(Cl)cc(C(=O)Nc2nc3ccc(C(F)(F)F)cc3s2)c1O [Compound 52, 5-Chloro-3-(3-(dimethylamino)propyl)-2-hydroxy-N-(6-(trifluoromethyl)benzo[d]thiazol-2-yl)benzamide]
- minimal effective concentration [1]: < 10 µM

Compound: CN(C)Cc1cc(Cl)cc(C(=O)Nc2nc3ccc(C(F)(F)F)cc3s2)c1O [Compound 53, 5-Chloro-3-((dimethylamino)methyl)-2-hydroxy-N-(6-(trifluoromethyl)benzo[d]thiazol-2-yl)benzamide]
- minimal effective concentration [1]: < 10 µM

Compound: CN(C)Cc1cc(Cl)cc(C(=O)Nc2nc3ccc(OC(F)(F)F)cc3s2)c1O [Compound 54, 5-Chloro-3-((dimethylamino)methyl)-2-hydroxy-N-(6-(trifluoromethoxy)benzo[d]thiazol-2-yl)benzamide]
- minimal effective concentration [1]: < 10 µM

Compound: Cc1nc2cc(Cl)cc(C(=O)Nc3nc4ccc(C(F)(F)F)cc4s3)c2[nH]1 [Compound 56, 5-Chloro-2-methyl-N-(6-(trifluoromethyl)benzo[d]thiazol-2-yl)-1H-benzo[d]imidazole-7-carboxamide]
- minimal effective concentration [1]: < 10 µM

Compound: CCc1nc2cc(Cl)cc(C(=O)Nc3nc4ccc(C(F)(F)F)cc4s3)c2[nH]1 [Compound 57, 5-Chloro-2-ethyl-N-(6-(trifluoromethyl)benzo[d]thiazol-2-yl)-1H-benzo[d]imidazole-7-carboxamide]
- minimal effective concentration [1]: > 25 µM

Compound: O=C(Nc1nc2ccc(C(F)(F)F)cc2s1)c1cc(Cl)cc2nn[nH]c12 [Compound 58, 5-Chloro-N-(6-(trifluoromethyl)benzo[d]thiazol-2-yl)-1H-benzo[d][1,2,3]triazole-7-carboxamide]
- minimal effective concentration [1]: > 25 µM
- pEC50 [2]: < 4.60

Compound: O=C(Nc1nc2c(F)cc(F)cc2s1)c1cc(Cl)cc2nn[nH]c12 [Compound 59, 5-Chloro-N-(4,6-difluorobenzo[d]thiazol-2-yl)-1H-benzo[d][1,2,3]triazole-7-carboxamide]
- minimal effective concentration [1]: > 25 µM
